According to patent publication US20050282755A1, “Compositions having antimicrobial activity and uses thereof” (priority 2004, published 2005):
Residues, ends and D or L forms follow the SMILES beside them.

How the values were obtained:
[1] = system: Staphylococcus aureus ATCC 29213; assay: MIC, NCCLS M7-A6 broth microdilution, cation-adjusted Mueller Hinton broth (Table 9, no superscript); assay type: cell-based; details: ATCC 29213
Procedure: (§1) Cation-adjusted Mueller Hinton broth was used in the broth microdilution method. In brief, a log-phase bacterial suspension was used to inoculate wells of a 96-well plate so that the final inoculum for each well contained 5×10^5 to 1×10^6 CFU/milliliter. […] Plates were incubated overnight at 37° C. The lowest concentration of peptide that contained no visible growth as evidenced by a lack of turbidity when compared to the control (no peptide) was determined as the MIC. Unless otherwise noted, MIC values listed in Table 9 utilized this method of MIC determination.

Salmonella dublin (Lane) = assay: MIC, NCCLS M7-A6 broth microdilution (Table 9, no superscript); assay type: cell-based
Procedure: as §1

| MIC S. aureus [1] [µg/mL] | MIC S. dublin (Salmonella dublin (Lane)) [µg/mL] | Structure (SMILES) |
| --- | --- | --- |
| >64 | >64 | CSCC[C@H](NC(=O)[C@H](Cc1ccccc1)NC(=O)[C@H](CC(N)=O)NC(=O)[C@H](CCCNC(=N)N)NC(=O)[C@H](CO)NC(=O)[C@H](Cc1c[nH]c2ccccc12)NC(=O)[C@H](CC(=O)O)NC(=O)[C@H](CCCNC(=N)N)NC(=O)[C@H](Cc1c[nH]c2ccccc12)NC(=O)[C@H](CCCNC(=N)N)NC(=O)[C@H](CO)NC(=O)[C@H](CCCNC(=N)N)NC(=O)CNC(=O)[C@@H](NC(=O)[C@H](CCCNC(=N)N)NC(=O)[C@H](CO)NC(=O)[C@@H](NC(=O)[C@H](CCCNC(=N)N)NC(=O)[C@@H](NC(C)=O)[C@@H](C)O)C(C)C)[C@@H](C)O)C(=O)N[C@@H](CCCNC(=N)N)C(=O)N[C@@H](C)C(=O)N[C@@H](C)C(=O)N[C@@H](CCCCN)C(=O)N[C@@H](CCCCN)C(=O)N[C@@H](CCCCN)C(=O)N[C@@H](CCCCN)C(N)=O [Peptide 5] (Ac-TRVSRTGRSRWRDWSRNFMRAAKKKK-NH2) |
| >64 | >64 | CSCC[C@H](NC(=O)[C@H](Cc1ccccc1)NC(=O)[C@H](CC(N)=O)NC(=O)[C@H](CCCNC(=N)N)NC(=O)[C@H](CO)NC(=O)[C@H](Cc1c[nH]c2ccccc12)NC(=O)[C@H](CC(=O)O)NC(=O)[C@H](CCCNC(=N)N)NC(=O)[C@H](Cc1c[nH]c2ccccc12)NC(=O)[C@H](CCCNC(=N)N)NC(=O)[C@H](CO)NC(=O)[C@H](CCCNC(=N)N)NC(=O)CNC(=O)[C@@H](NC(=O)[C@H](CCCNC(=N)N)NC(=O)[C@H](CO)NC(=O)[C@@H](NC(=O)[C@H](CCCNC(=N)N)NC(=O)[C@@H](NC(C)=O)[C@@H](C)O)C(C)C)[C@@H](C)O)C(=O)N[C@@H](CCCNC(=N)N)C(=O)N[C@@H](C)C(=O)N[C@@H](C)C(=O)N[C@@H](CCCCN)C(=O)N[C@@H](CCCCN)C(=O)N[C@@H](CCCCN)C(=O)N[C@@H](CCCCN)C(=O)N[C@@H](CCCCN)C(N)=O [Peptide 6] (Ac-TRVSRTGRSRWRDWSRNFMRAAKKKKK-NH2) |
| >64 | >64 | CSCC[C@H](NC(=O)[C@H](Cc1ccccc1)NC(=O)[C@H](CC(N)=O)NC(=O)[C@H](CCCNC(=N)N)NC(=O)[C@H](CO)NC(=O)[C@H](Cc1c[nH]c2ccccc12)NC(=O)[C@H](CC(=O)O)NC(=O)[C@H](CCCNC(=N)N)NC(=O)[C@H](Cc1c[nH]c2ccccc12)NC(=O)[C@H](CCCNC(=N)N)NC(=O)[C@H](CO)NC(=O)[C@H](CCCNC(=N)N)NC(=O)CNC(=O)[C@@H](NC(=O)[C@H](CCCNC(=N)N)NC(=O)[C@H](CO)NC(=O)[C@@H](NC(=O)[C@H](CCCNC(=N)N)NC(=O)[C@@H](NC(C)=O)[C@@H](C)O)C(C)C)[C@@H](C)O)C(=O)N[C@@H](CCCNC(=N)N)C(=O)N[C@@H](C)C(=O)N[C@@H](C)C(=O)N[C@@H](CCCCN)C(=O)N[C@@H](CCCCN)C(=O)N[C@@H](CCCCN)C(=O)N[C@@H](CCCCN)C(=O)N[C@@H](CCCCN)C(=O)N[C@@H](CCCCN)C(N)=O [Peptide 7] (Ac-TRVSRTGRSRWRDWSRNFMRAAKKKKKK-NH2) |
| >64 | >64 | CSCC[C@H](NC(=O)[C@H](Cc1ccccc1)NC(=O)[C@H](CC(N)=O)NC(=O)[C@H](CCCNC(=N)N)NC(=O)[C@H](CO)NC(=O)[C@H](Cc1c[nH]c2ccccc12)NC(=O)[C@H](CC(=O)O)NC(=O)[C@H](CCCNC(=N)N)NC(=O)[C@H](Cc1c[nH]c2ccccc12)NC(=O)[C@H](CCCNC(=N)N)NC(=O)[C@H](CO)NC(=O)[C@H](CCCNC(=N)N)NC(=O)CNC(=O)[C@@H](NC(=O)[C@H](CCCNC(=N)N)NC(=O)[C@H](CO)NC(=O)[C@@H](NC(=O)[C@H](CCCNC(=N)N)NC(=O)[C@@H](NC(=O)[C@H](C)NC(=O)[C@H](C)NC(=O)[C@H](CCCCN)NC(=O)[C@H](CCCCN)NC(=O)[C@H](CCCCN)NC(=O)[C@H](CCCCN)NC(C)=O)[C@@H](C)O)C(C)C)[C@@H](C)O)C(=O)N[C@@H](CCCNC(=N)N)C(=O)N[C@@H](C)C(=O)N[C@@H](C)C(=O)N[C@@H](CCCCN)C(=O)N[C@@H](CCCCN)C(=O)N[C@@H](CCCCN)C(=O)N[C@@H](CCCCN)C(N)=O [Peptide 8] (Ac-KKKKAATRVSRTGRSRWRDWSRNFMRAAKKKK-NH2) |
